From patent US20110065632A1, “PHARMACEUTICAL COMPOSITIONS OF SOMATOSTATIN-DOPAMINE CONJUGATES” (priority 2008, published 2011)
pKi: −log10 of the molar value. Where two headings read alike, the source gives them in different places. Numbered stars: 1 amine (or outer) side, 2 acyl side, 3 side chain; on linkers, the order of the positions; unused ones are H or OH. Bridge positions count the residues as written; N and C are the ends. Square brackets hold non-standard residues; d marks the D form. Peptide text beside a SMILES is read from it. * marks the point of attachment. X1 = CCCN1C[C@H](CSCC(=O)*)C[C@@H]2c3cccc4[nH]cc(c34)C[C@H]21; X2 = CN1C[C@H](CSCC(=O)*)C[C@@H]2c3cccc4[nH]cc(c34)C[C@H]21; Pipz(1-CH2CO,4-CH2CH2NH) = O=C(CN1CCN(CCN[*:1])CC1)[*:2]; Abu = CC[C@H](N)C(=O)O; AEEA = NCCOCCOCC(=O)O

Experiments:
hsst1 = target: T1, hsst1 (Homo sapiens, UniProt P30872); experiment: Somatostatin receptor radioligand binding assay, hsst1; conditions: CHO-K1 membranes, [125I-Tyr11]SS-14; read-out: hsst1 Ki
T1 construct: expressed in transfected cells
Experimental: (§1) Specificity and selectivity of the somatostatin analogues used to synthesize the somatostatin-dopamine chimers were determined by a radioligand binding assay on CHO-K1 cells stably transfected with each of the SSTR subtypes, as follows. Somatostatin analogs are also described in U.S. Patent Application Publication No. 02210006790. The complete coding sequences of genomic fragments of the SSTR 1 (e.g., Genbank accession No. M81829), SSTR 2 (e.g., Genbank accession No. M81830), SSTR 3 (e.g., Genbank accession No. L07062), and SSTR 4 (e.g., Genbank accession No. AL049651) genes and a cDNA clone for SSTR 5 (e.g., Genbank accession No. D16827) was subcloned into the mammalian expression vector pCMV (Life Technologies, Milano, Italy). Other SSTR sequences are known to the skilled artisan. Clonal cell lines stably expressing SSTR's 1-5 were obtained by transfection into CHO-K1 cells (ATCC, Manassas, Va., USA) using the calcium phosphate co-precipitation method (Davis L, et al., 1994 In: Basic methods in Molecular Biology, 2nd edition, Appleton & Lange, Norwalk, Conn., USA: 611-646). The plasmid pRSV-neo (ATCC) was included as a selectable marker. Clonal cell lines were selected in RPMI 1640 media containing 0.5 mg/mL of G418 (Life Technologies, Milano, Italy), ring cloned, and expanded into culture.
(§2) Membranes for in vitro receptor binding assays were obtained by homogenizing the CHO-K1 cells expressing the SSTR's subtypes in ice-cold 50 mM Tris-HCl and centrifuging twice at 39,000 g (10 min), with an intermediate resuspension in fresh buffer. The final pellets were resuspended in 10 mM Tris-HCl for assay.
(§3) For the SSTR 1, 3, 4, and 5 assays, aliquots of the membrane preparations were incubated 90 minutes at 25° C. with 0.05 nM [^125I-Tyr11]SS-14 in 50 mM HEPES (pH 7.4) containing 10 mg/mL BSA, 5 mM MgCl2, 200 KIU/mL Trasylol, 0.02 mg/mL bacitracin, and 0.02 mg/mL phenylmethylsuphonyl fluoride. The final assay volume was 0.3 mL.
(§4) For the SSTR 2 assay, 0.05 nM [^125I]MK-678 was employed as the radioligand and the incubation time was 90 minutes at 25° C. The incubations were terminated by rapid filtration through GF/C glass microfiber filters (Whatman Co.) (pre-soaked in 0.3% polyethylenimine) using a BRANDEL filtration manifold. Each tube and filter was washed three times with 5 mL aliquots of ice-cold buffer. Specific binding was defined as the total radioligand bound minus that bound in the presence of 1000 nM SS-14 for SSTR 1, 3, 4, and 5, or 1000 nM MK-678 for SSTR2.
(§5) Using the discussed assays, the inhibition constants (Ki) for the five human somatostatin receptors (hSSTR1-hSSTR5) and the dopamine-2 receptor (hUTII and hDA2) were measured for the exemplified somatostatin-dopamine conjugates, as follows: […]

hsst2 = target: T2, hsst2 (Homo sapiens, UniProt P30874); experiment: Somatostatin receptor radioligand binding assay, hsst2; conditions: CHO-K1 membranes, [125I]MK-678; read-out: hsst2 Ki
T2 construct: expressed in transfected cells
Experimental: as §1, §2, §4

hsst3 = target: T3, hsst3 (Homo sapiens, UniProt P32745); experiment: Somatostatin receptor radioligand binding assay, hsst3
T3 construct: expressed in transfected cells
Experimental: as §1, §2, §3, §4, §5

hUTII = target: T4, hUTII (Homo sapiens, UniProt Q9UKP6); experiment: hUTII inhibition constant; format: binding; conditions: read-out: hUTII Ki
T4 sequence (Q9UKP6 1-389): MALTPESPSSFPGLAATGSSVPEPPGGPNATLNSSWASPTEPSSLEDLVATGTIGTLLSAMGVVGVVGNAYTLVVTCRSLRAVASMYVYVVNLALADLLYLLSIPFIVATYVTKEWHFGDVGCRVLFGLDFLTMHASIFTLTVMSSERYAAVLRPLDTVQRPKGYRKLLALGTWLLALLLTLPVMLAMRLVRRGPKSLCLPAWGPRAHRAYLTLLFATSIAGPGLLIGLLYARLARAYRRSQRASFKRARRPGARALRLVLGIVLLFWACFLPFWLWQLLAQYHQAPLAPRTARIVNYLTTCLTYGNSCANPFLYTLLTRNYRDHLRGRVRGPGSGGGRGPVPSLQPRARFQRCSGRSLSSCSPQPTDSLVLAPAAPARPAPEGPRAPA
Experimental: as §5

hDA2 = experiment: Dopamine-2 receptor radioligand binding assay; design: species or system human; conditions: [3H]spiperone
Experimental: Specificity and selectivity for the dopamine-2 receptor of the dopamine analogues used to synthesize the somatostatin-dopamine chimers may be determined by a radioligand binding assay as follows.
Crude membranes were prepared by homogenization of frozen rat corpus striatum (Zivic Laboratories, Pittsburgh, Pa., USA) in 20 mL of ice-cold 50 mM Tris-HCl with a Brinkman Polytron cell disrupter (setting 6, 15 sec). Buffer was added to obtain a final volume of 40 mL, and the homogenate was centrifuged in a Sorval SS-34 rotor at 39,000 g for 10 minutes at 0-4° C. The resulting supernatant was decanted and discarded. The pellet was rehomogenized in ice-cold buffer, pre-incubated at 37° C. for 10 min, diluted, and centrifuged as before. The final pellet was resuspended in buffer and held on ice for the receptor binding assay.
For assay, aliquots of the washed membrane preparations and test compounds were incubated for 15 minutes (37° C.) with 0.25 nM [^3HI]spiperone (16.5 Ci.mmol, New England Nuclear, Boston, Mass., USA) in 50 mM Tris HCl, 120 mM NaCl, 5 mM KCl, 2 mM CaCl2, 1 mM MgCl2. The final assay volume was 1.0 mL. The incubations were terminated by rapid filtration through GF/B glass fibre filters using a Brandel filtration manifold. Each tube and filter was then washed three times with 5-mL aliquots of ice-cold buffer. Specific binding was defined as the total radioligand bound minus that bound in the presence of 1000 nM (+) butaclamol.
as §5

hsst5 = target: T5, hsst5 (Homo sapiens, UniProt P35346); experiment: Somatostatin receptor radioligand binding assay, hsst5; conditions: CHO-K1 membranes, [125I-Tyr11]SS-14
T5 construct: expressed in transfected cells
Experimental: as §1, §2, §3, §4

[1] = CHO-K1 membranes, [125I-Tyr11]SS-14, read-out: hsst3 Ki

T3 sequence (P32745 whole entry): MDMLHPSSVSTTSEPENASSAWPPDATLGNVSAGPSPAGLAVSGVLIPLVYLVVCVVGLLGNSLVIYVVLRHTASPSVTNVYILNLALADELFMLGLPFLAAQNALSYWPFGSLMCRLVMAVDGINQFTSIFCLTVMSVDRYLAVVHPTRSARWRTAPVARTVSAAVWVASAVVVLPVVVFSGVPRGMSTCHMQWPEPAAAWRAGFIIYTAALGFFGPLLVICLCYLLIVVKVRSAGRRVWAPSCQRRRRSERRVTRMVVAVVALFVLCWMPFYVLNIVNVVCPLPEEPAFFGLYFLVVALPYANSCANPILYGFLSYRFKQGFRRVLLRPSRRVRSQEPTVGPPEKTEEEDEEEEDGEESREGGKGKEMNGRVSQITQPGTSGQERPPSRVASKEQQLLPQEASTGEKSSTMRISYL
T2 sequence (P30874 whole entry): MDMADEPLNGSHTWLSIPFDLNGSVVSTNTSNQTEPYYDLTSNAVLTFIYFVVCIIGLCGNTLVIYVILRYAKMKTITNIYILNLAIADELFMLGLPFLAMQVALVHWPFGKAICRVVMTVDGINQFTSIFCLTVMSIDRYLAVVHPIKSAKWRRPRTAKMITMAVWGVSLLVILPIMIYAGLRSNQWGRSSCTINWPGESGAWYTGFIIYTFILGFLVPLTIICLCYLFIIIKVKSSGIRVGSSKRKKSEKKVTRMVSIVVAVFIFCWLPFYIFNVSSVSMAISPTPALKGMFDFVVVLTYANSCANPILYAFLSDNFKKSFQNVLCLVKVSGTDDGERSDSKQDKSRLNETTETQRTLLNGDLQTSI
T5 sequence (P35346 whole entry): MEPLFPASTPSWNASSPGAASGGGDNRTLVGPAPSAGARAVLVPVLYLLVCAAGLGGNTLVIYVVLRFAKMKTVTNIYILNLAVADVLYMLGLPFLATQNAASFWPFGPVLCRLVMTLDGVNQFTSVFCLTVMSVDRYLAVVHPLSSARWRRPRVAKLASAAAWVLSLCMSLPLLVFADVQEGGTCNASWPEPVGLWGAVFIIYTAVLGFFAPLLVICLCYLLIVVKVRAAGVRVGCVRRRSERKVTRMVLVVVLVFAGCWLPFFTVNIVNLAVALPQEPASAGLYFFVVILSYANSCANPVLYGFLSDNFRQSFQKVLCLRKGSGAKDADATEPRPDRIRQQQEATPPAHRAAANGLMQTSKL
T1 sequence (P30872 whole entry): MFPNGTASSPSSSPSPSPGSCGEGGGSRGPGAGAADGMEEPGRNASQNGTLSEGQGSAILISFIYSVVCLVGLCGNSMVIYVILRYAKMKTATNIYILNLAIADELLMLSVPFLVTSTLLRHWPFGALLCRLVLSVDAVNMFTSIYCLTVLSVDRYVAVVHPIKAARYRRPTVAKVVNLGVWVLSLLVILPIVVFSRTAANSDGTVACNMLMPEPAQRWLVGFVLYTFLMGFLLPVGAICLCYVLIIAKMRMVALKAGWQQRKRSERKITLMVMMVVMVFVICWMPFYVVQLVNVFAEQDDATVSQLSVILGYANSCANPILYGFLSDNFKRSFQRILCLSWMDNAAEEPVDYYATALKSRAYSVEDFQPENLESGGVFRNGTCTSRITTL

Compound	pKi (hsst1)	pKi (hsst2)	pKi (hsst3; [1])	pKi (hUTII)	pKi (hDA2)	pKi (hsst5; read-out: hsst5 Ki)	pKi (hsst3)	pKi (hsst5; hsst5 Ki)
CCCN1C[C@H](CSCC(=O)N[C@H](Cc2ccccc2)C(=O)N[C@H]2CSSC[C@@H](C(=O)N[C@H](C(N)=O)[C@@H](C)O)NC(=O)[C@H](C(C)C)NC(=O)[C@H](CCCCN)NC(=O)[C@@H](Cc3c[nH]c4ccccc34)NC(=O)[C@H](Cc3ccc(OC(=O)CSC[C@@H]4C[C@@H]5c6cccc7[nH]cc(c67)C[C@H]5N(CCC)C4)c(I)c3)NC2=O)C[C@@H]2c3cccc4[nH]cc(c34)C[C@H]21 [Example 3]	6.00	9.43	6.63	7.13	7.78	–	–	–
CCCN1C[C@H](CSCC(=O)NCCN2CCN(CC(=O)N[C@H](Cc3ccccc3)C(=O)N[C@H]3CSSC[C@@H](C(=O)N[C@H](C(N)=O)[C@@H](C)O)NC(=O)[C@H](C(C)C)NC(=O)[C@H](CCCCN)NC(=O)[C@@H](Cc4c[nH]c5ccccc45)NC(=O)[C@H](Cc4ccc(O)c(I)c4)NC3=O)CC2)C[C@@H]2c3cccc4[nH]cc(c34)C[C@H]21 [Example 25]	6.00	8.96	6.37	6.63	6.46	–	–	–
CCCN1C[C@H](CSCC(=O)N[C@H](Cc2ccccc2)C(=O)N[C@H]2CSSC[C@@H](C(=O)N[C@H](C(N)=O)[C@@H](C)O)NC(=O)[C@H](C(C)C)NC(=O)[C@H](CCCCN)NC(=O)[C@@H](Cc3c[nH]c4ccccc34)NC(=O)[C@H](Cc3ccc(O)c(I)c3)NC2=O)C[C@@H]2c3cccc4[nH]cc(c34)C[C@H]21 [Example 26]	6.14	9.40	6.87	7.27	7.47	–	–	–
CC[C@@H]1NC(=O)[C@H](CCCCN)NC(=O)[C@@H](Cc2c[nH]c3ccccc23)NC(=O)[C@H](Cc2ccc(O)cc2)NC(=O)[C@@H](NC(=O)[C@@H](Cc2ccc(O)cc2)NC(=O)[C@@H](Cc2ccc(O)cc2)NC(=O)[C@H](CCCCN)NC(=O)CN2CCN(CCNC(=O)CSC[C@@H]3C[C@@H]4c5cccc6[nH]cc(c56)C[C@H]4N(C)C3)CC2)CSSC[C@@H](C(=O)N[C@H](C(N)=O)[C@@H](C)O)NC1=O [Example 32] (X2-[Pipz(1-CH2CO,4-CH2CH2NH)]K[dY][dY]CY[dW]K[Abu]CT-NH2; disulfide 5-10)	–	9.66	–	6.57	6.87	–	7.34	7.86
CC[C@@H]1NC(=O)[C@H](CCCCN)NC(=O)[C@@H](Cc2c[nH]c3ccccc23)NC(=O)[C@H](Cc2ccc(O)cc2)NC(=O)[C@@H](NC(=O)[C@@H](Cc2ccc(O)cc2)NC(=O)[C@@H](Cc2ccc(O)cc2)NC(=O)[C@H](CCCCN)NC(=O)CSC[C@@H]2C[C@@H]3c4cccc5[nH]cc(c45)C[C@H]3N(C)C2)CSSC[C@@H](C(=O)N[C@H](C(N)=O)[C@@H](C)O)NC1=O [Example 33] (X2-K[dY][dY]CY[dW]K[Abu]CT-NH2; disulfide 4-9)	–	9.70	–	7.42	6.69	–	7.19	8.01
CC[C@@H]1NC(=O)[C@H](CCCCN)NC(=O)[C@@H](Cc2c[nH]c3ccccc23)NC(=O)[C@H](Cc2ccc(O)cc2)NC(=O)[C@@H](NC(=O)[C@@H](Cc2ccc(O)cc2)NC(=O)[C@@H](Cc2ccc(O)cc2)NC(=O)[C@H](CCCCN)NC(=O)COCCOCCNC(=O)CSC[C@@H]2C[C@@H]3c4cccc5[nH]cc(c45)C[C@H]3N(C)C2)CSSC[C@@H](C(=O)N[C@H](C(N)=O)[C@@H](C)O)NC1=O [Example 34] ({X2-AEEA}-K[dY][dY]CY[dW]K[Abu]CT-NH2; disulfide 4-9)	–	9.64	–	6.68	6.94	–	7.31	8.07

More lines, main results first:

pKi (hsst1)	pKi (hsst2)	pKi (hsst3; [1])	pKi (hUTII)	pKi (hDA2)	pKi (hsst5; read-out: hsst5 Ki)	Compound	pKi (hsst3)	pKi (hsst5; hsst5 Ki)
6.00	9.08	6.40	7.08	7.53	–	CCCN1C[C@H](CSCC(=O)N[C@H](Cc2ccccc2)C(=O)NCCOCCOCC(=O)N[C@H](Cc2ccccc2)C(=O)N[C@H]2CSSC[C@@H](C(=O)N[C@H](C(N)=O)[C@@H](C)O)NC(=O)[C@H](C(C)C)NC(=O)[C@H](CCCCN)NC(=O)[C@@H](Cc3c[nH]c4ccccc34)NC(=O)[C@H](Cc3ccc(O)c(I)c3)NC2=O)C[C@@H]2c3cccc4[nH]cc(c34)C[C@H]21 [Example 4]	–	–
–	9.57	6.96	6.87	7.25	7.87	CCCN1C[C@H](CSCC(=O)N[C@@H](CCCCN)C(=O)N[C@H](Cc2ccc(O)cc2)C(=O)N[C@H](Cc2ccc(O)cc2)C(=O)N[C@H]2CSSC[C@@H](C(=O)N[C@H](C(N)=O)[C@@H](C)O)NC(=O)[C@H](CC)NC(=O)[C@H](CCCCN)NC(=O)[C@@H](Cc3c[nH]c4ccccc34)NC(=O)[C@H](Cc3ccc(O)cc3)NC2=O)C[C@@H]2c3cccc4[nH]cc(c34)C[C@H]21 [Example 35] (X1-K[dY][dY]CY[dW]K[Abu]CT-NH2; disulfide 4-9)	–	–
–	8.78	6.84	5.51	6.48	7.27	CCCN1C[C@H](CSCC(=O)NCCN2CCN(CC(=O)NCCN3CCN(CC(=O)N[C@H](Cc4ccccc4)C(=O)N[C@H]4CSSC[C@@H](C(=O)N[C@H](C(N)=O)[C@@H](C)O)NC(=O)[C@H](CC)NC(=O)[C@H](CCCCN)NC(=O)[C@@H](Cc5c[nH]c6ccccc56)NC(=O)[C@H](Cc5ccc(O)cc5)NC4=O)CC3)CC2)C[C@@H]2c3cccc4[nH]cc(c34)C[C@H]21 [Example 36] (X1-[Pipz(1-CH2CO,4-CH2CH2NH)][Pipz(1-CH2CO,4-CH2CH2NH)][dF]CY[dW]K[Abu]CT-NH2; disulfide 4-9)	–	–
–	9.46	7.21	5.92	6.39	7.55	CC[C@@H]1NC(=O)[C@H](CCCCN)NC(=O)[C@@H](Cc2c[nH]c3ccccc23)NC(=O)[C@H](Cc2ccc(O)cc2)NC(=O)[C@@H](NC(=O)[C@@H](Cc2ccccc2)NC(=O)CN2CCN(CCNC(=O)CSC[C@@H]3C[C@@H]4c5cccc6[nH]cc(c56)C[C@H]4N(C)C3)CC2)CSSC[C@@H](C(=O)N[C@H](C(N)=O)[C@@H](C)O)NC1=O [Example 38]	–	–
